Experimental data from patent US20140011799A1 (Bristol-Myers Squibb Company, priority 2012, published 2014).

What was measured:
hepatic lipase (HL) = target: T1, hepatic lipase (HL) (Homo sapiens, UniProt P11150); experiment: Hepatic lipase (HL) enzymatic assay, fluorescent substrate A10070 in DMPG vesicles; format: biochemical; details: HL partially purified from conditioned media of COS cells; compound preincubated 30 min at 37° C; read-out: HL IC50
T1 construct: made in house; host or cells: COS cells (conditioned medium, partially purified)
T1 sequence (P11150 23-499): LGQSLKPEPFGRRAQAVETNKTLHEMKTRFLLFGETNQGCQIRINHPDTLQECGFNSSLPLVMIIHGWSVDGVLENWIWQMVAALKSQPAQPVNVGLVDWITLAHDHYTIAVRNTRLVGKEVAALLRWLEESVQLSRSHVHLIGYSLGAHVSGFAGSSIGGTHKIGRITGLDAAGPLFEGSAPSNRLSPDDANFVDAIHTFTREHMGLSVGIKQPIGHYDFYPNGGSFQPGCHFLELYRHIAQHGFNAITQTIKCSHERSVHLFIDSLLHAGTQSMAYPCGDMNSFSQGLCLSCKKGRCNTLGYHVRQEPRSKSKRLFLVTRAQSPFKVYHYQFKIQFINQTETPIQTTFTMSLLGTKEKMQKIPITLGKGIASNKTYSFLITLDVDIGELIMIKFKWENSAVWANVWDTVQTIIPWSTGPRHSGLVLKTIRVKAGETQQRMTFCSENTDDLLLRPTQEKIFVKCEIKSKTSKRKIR
In short: (§1)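 Substrate A10070 sits in sonicated DMPG vesicles at 0.11 mole fraction. Lipase and compound preincubated 30 min, 37° C, in HEPES pH 8.0 buffer with CaCl2.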

Endothelial lipase (EL) = target: T2, Endothelial lipase (EL) (Homo sapiens, UniProt Q9Y5X9); experiment: Endothelial lipase (EL) enzymatic assay, fluorescent substrate A10070 in DMPG vesicles; format: biochemical; details: EL from conditioned media of HT-1080 cells; compound preincubated 30 min at 37° C; read-out: EL IC50
T2 construct: HT-1080 cells that were transformed using RAGE technology (Athersys) to overexpress endogenous EL; endogenous in cells; conditioned medium used
T2 sequence (Q9Y5X9 21-500): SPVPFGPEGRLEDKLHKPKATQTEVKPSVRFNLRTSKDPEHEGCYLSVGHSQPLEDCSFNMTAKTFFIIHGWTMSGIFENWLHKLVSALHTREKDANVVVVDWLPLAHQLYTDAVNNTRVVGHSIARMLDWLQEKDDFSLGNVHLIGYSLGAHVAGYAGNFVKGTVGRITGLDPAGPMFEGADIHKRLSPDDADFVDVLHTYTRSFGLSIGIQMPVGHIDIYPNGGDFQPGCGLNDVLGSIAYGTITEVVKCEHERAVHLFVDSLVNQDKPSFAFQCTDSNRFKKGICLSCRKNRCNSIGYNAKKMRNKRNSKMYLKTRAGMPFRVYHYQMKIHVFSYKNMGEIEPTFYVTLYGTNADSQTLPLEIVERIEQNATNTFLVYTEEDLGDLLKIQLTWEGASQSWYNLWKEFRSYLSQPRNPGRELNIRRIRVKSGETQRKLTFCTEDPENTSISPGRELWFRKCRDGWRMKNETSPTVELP
In short: as §1

SMILES	IC50 (hepatic lipase (HL))	IC50 (Endothelial lipase (EL))
NS(=O)(=O)NCc1nnc(C(c2nc3ccc(-c4cccc(Cl)c4)cc3s2)S(=O)(=O)Cc2ccccc2)o1 (centres unmarked) [Example 129, N-((5-((benzylsulfonyl)(6-(3-chlorophenyl)-1,3-benzothiazol-2-yl)methyl)-1,3,4-oxadiazol-2-yl)methyl) sulfamide]	< 10 nM	< 10 nM
NCCS(=O)(=O)C(c1nnc(CNS(N)(=O)=O)o1)c1nc2ccc(-c3ccc(C(=O)N4CCOCC4)cc3)cc2s1 (centres unmarked) [Example 183, N-{[5-([(2-Aminoethyl)sulfonyl]{6-[4-(4-morpholinylcarbonyl)phenyl]-1,3-benzothiazol-2-yl}methyl)-1,3,4-oxadiazol-2-yl]methyl}sulfuric diamide]	178 nM	14 nM
COCc1ccc(-c2ccc3nc(C(c4nnc(CNS(N)(=O)=O)o4)S(=O)(=O)Cc4cc(C(F)(F)F)cc(C(F)(F)F)c4)sc3c2)cc1 (centres unmarked) [Example 234, N-[(5-{[3,5-bis(trifluoromethyl)phenyl]methanesulfonyl({6-[4-(methoxymethyl)phenyl]-1,3-benzothiazol-2-yl})methyl}-1,3,4-oxadiazol-2-yl)methyl]aminosulfonamide]	17 nM	4 nM
NS(=O)(=O)NCc1nnc(C(c2nc3ccc(Br)cc3s2)S(=O)(=O)Cc2ccccc2)o1 (centres unmarked) [Example 124, N-((5-((benzylsulfonyl)(6-bromo-1,3-benzothiazol-2-yl)methyl)-1,3,4-oxadiazol-2-yl)methyl)sulfamide]	37 nM	48 nM
